Patent EP1059033A1, “INDUSTRIAL ANTIBACTERIAL/ANTIFUNGAL AGENTS, ALGICIDES AND ANTI-BIOLOGICAL ADHESION AGENTS CONTAINING BENZYLAMINES” (Nissan Chemical Industries, Ltd., priority 1998, dated 1999)
Converted amounts (≈) assume the structure as drawn.

Test system: Trichophyton mentagrophytes
Test: Agar dilution MIC (Example 2)
Assay type: cell-based
Conditions: 168 h, agar plate, 27 °C, 7 days
Procedure: (§1) Series of diluted samples (20000, 10000, 5000, 2500, 2000, 1250, 625, 313, 156, 78, 39, 20, 10, 5, 2.5, 1.25 mg/l) of the compounds of the invention were prepared using dimethylsulfoxide. A sensitive culture medium-N (Nissui Seiyaku Co.) was used for bacteria and a potato dextrose agar culture medium (Nissui Seiyaku Co.) was used for fungi. 0.5 ml of each sample was added to and mixed with 9.5 ml of the culture medium, poured into a Petri dish and solidified to obtain a plate. As a result, the concentration of the compounds of the invention in the agar culture medium were 1000, 500, 250, 125, 100, 62.5, 31.3, 15.6, 7.8, 3.9, 2.0, 1.0, 0.5, 0.25, 0.125, 0.062 mg/l. The bacterium inoculated were cultured in a bouillon for the assay of sensitivity (Nissui Seiyaku Co.) at 37 °C for 20 hours, and the fungi were cultured in the potato dextrose agar culture medium (Nissui Seiyaku Co.) for 10 days and then a 10^6 CFU/ml suspension was prepared from each of them. A test bacteria or fungi suspension was streaked on an agar plate containing the compound of the present invention with platinum wire loop, and the agar plate was cultured at 37±1 °C for 18 to 20 hours for bacteria or at 27 °C for 7 days for fungi. A concentration at which no growth was seen was taken as minimum inhibitory concentration [MIC(mg/l)]. Symbols in the table mean the followings; • A: Bacillus subtilis, • B: Trichophyton mentagrophytes, • C: Rhodotorula mucilaginosa.

Compound	MIC [µg/mL]
CCCCCCc1ccc(CN(C)Cc2cccc3ccccc23)cc1 [Compound 36]	2 (≈ 5.79 µM)
Cc1ccc(CN(C)Cc2cccc3ccccc23)cc1C [Compound 41]	7.8 (≈ 27 µM)

More lines, now with the values ahead:

MIC [µg/mL]	Compound
15.6 (≈ 52.5 µM)	CN(Cc1ccc(F)c(F)c1)Cc1cccc2ccccc12 [Compound 45]
15.6 (≈ 54.5 µM)	CN(Cc1ccc(C#N)cc1)Cc1cccc2ccccc12 [Compound 46]
15.6 (≈ 56.6 µM)	Cc1cccc(CN(C)Cc2cccc3ccccc23)c1 [Compound 50]
15.6 (≈ 48.8 µM)	CCCOc1ccc(CN(C)Cc2cccc3ccccc23)cc1 [Compound 51]
7.8 (≈ 22.2 µM)	CN(Cc1ccc(C(C)(C)CCl)cc1)Cc1cccc2ccccc12 [Compound 35]
7.8 (≈ 26.8 µM)	COc1ccc(CN(C)Cc2cccc3ccccc23)cc1 [Compound 38]
7.8 (≈ 24.4 µM)	CC(C)Oc1ccc(CN(C)Cc2cccc3ccccc23)cc1 [Compound 47]
3.9 (≈ 14.2 µM)	Cc1ccc(CN(C)Cc2cccc3ccccc23)cc1 [Compound 39]
0.5 (≈ 1.51 µM)	CN(Cc1ccc(Cl)c(Cl)c1)Cc1cccc2ccccc12 [Compound 37]

Test system: Rhodotorula mucilaginosa
Test: Agar dilution MIC (Example 2)
Assay type: cell-based
Conditions: 168 h, agar plate, 27 °C, 7 days
Procedure: as §1

MIC [µg/mL]	Compound
7.8 (≈ 22.2 µM)	CN(Cc1ccc(C(C)(C)CCl)cc1)Cc1cccc2ccccc12 [Compound 35]

Test system: Trichophyton mentagrophytes
Test: not given
Assay type: cell-based
Conditions: 72 h, 100 ppm
Procedure: 31.3 ml of Trichophyton mentagrophytes to be tested was added to 125 ml of a potato dextrose agar culture medium (Nissui Seiyaku Co.). The medium was stirred not to foam the solutions, poured into plates uniformly and solidified.
Thereafter, predetermined amounts of the compounds of the invention were weighted and diluted with acetone to predetermined concentrations.
Paper disks were impregnated with samples containing predetermined amounts of the compounds of the invention, laid on a filter, dried with air and placed on a plate containing test microbe at equal intervals.
Trichophyton mentagrophytes was cultured at 28 °C for 3 days in a thermostatic chamber and the diameter of each inhibiting zone was measured to evaluate the activity of each compound. Symbols in the table mean the followings; • A: Trichophyton mentagrophytes, • ++: strongly inhibiting zone (equal to or more than 21 mm) is observed, • +: inhibiting zone (10 to 20 mm) is observed, • -: no inhibiting zone is observed.

Compound	Judgment (Target bacteria: A)
CN(Cc1ccc(C(C)(C)C)cc1)Cc1cc(Cl)cc(Cl)c1 [Compound 1]	++ (strongly inhibiting zone (equal to or more than 21 mm) is observed)
CC(C)c1ccc(CN(C)Cc2cccc3ccccc23)cc1 [Compound 29]	++ (strongly inhibiting zone (equal to or more than 21 mm) is observed)

Test system: seawater diatom [Nitzschia closterium]
Test: Inhibition of propagation of seawater diatom (Example 5)
Assay type: cell-based
Conditions: Cylindrotheca closterium, 72 h, read-out: Propagation inhibiting rate(%) 500ppb
Procedure: A predetermined amount of each of the compounds of the invention was dissolved in culture media containing 10^5 /ml of a seawater diatom [Nitzschia closterium] at a logarithmic growth phase to prepare samples having a concentration of the compound in the medium of 500 ppb. The samples were stationary cultured at 22±1 °C for […] under continuous illumination.
After 72 hours, cells were collected by centrifugation and disrupted by addition of methanol to extract chlorophyll, and the amount of chlorophyll was measured from absorbance using a spectrophotometer to obtain propagation rate. The propagation inhibiting rate was calculated from comparison with the non-treated lot.

Compound	inhibition at 0.5 ppm [%]
CC(C)c1ccc(CN(C)Cc2cccc3ccccc23)cc1 [Compound 29]	76
CN(Cc1c(Cl)cccc1Cl)Cc1cccc2ccccc12 [Compound 48]	77

Test system: freshwater green alga (Selenastrum capricornutum)
Test: Inhibition of propagation of freshwater green alga (Example 4)
Assay type: cell-based
Conditions: 50ppb, after 72 hours, cell number vs non-treated lot, read-out: Propagation inhibiting rate(%) 50ppb
Procedure: A predetermined amount of each of the compounds of the invention was dissolved in a culture medium containing 10^5 /ml of a freshwater green alga (Selenastrum capricornutum) at a logarithmic growth phase to prepare samples having a concentration of the compound of the invention in the medium of 500 ppb and 50ppb respectively. The samples were stationary cultured at 23±1 °C for […] under continuous illumination.
After 72 hours, the number of cells was measured using a hemacytometer to obtain propagation rate. The propagation inhibiting rate was calculated from comparison with the non-treated lot.

Compound	inhibition at 0.05 ppm [%]
CN(Cc1ccc(C(C)(C)C)cc1)Cc1cc(Cl)cc(Cl)c1 [Compound 1]	79
CC(C)c1ccc(CN(C)Cc2cccc3ccccc23)cc1 [Compound 29]	95
CN(Cc1ccc(C(C)(C)CCl)cc1)Cc1cccc2ccccc12 [Compound 35]	75
CN(Cc1cc(Cl)cc(Cl)c1)Cc1cccc2ccccc12 [Compound 40]	61
Cc1ccc(CN(C)Cc2cccc3ccccc23)cc1C [Compound 41]	66
CC(C)Oc1ccc(CN(C)Cc2cccc3ccccc23)cc1 [Compound 47]	63

Same assay, conditions: 500ppb, after 72 hours, cell number vs non-treated lot, read-out: Propagation inhibiting rate(%) 500ppb

Compound	inhibition at 0.5 ppm [%]
CN(Cc1ccc(C(C)(C)C)cc1)Cc1cc(Cl)cc(Cl)c1 [Compound 1]	94
CC(C)c1ccc(CN(C)Cc2cccc3ccccc23)cc1 [Compound 29]	96
CN(Cc1ccc(C(C)(C)CCl)cc1)Cc1cccc2ccccc12 [Compound 35]	94
CCCCCCc1ccc(CN(C)Cc2cccc3ccccc23)cc1 [Compound 36]	83
CN(Cc1ccc(Cl)c(Cl)c1)Cc1cccc2ccccc12 [Compound 37]	69
COc1ccc(CN(C)Cc2cccc3ccccc23)cc1 [Compound 38]	75
Cc1ccc(CN(C)Cc2cccc3ccccc23)cc1 [Compound 39]	90
CN(Cc1cc(Cl)cc(Cl)c1)Cc1cccc2ccccc12 [Compound 40]	61
Cc1ccc(CN(C)Cc2cccc3ccccc23)cc1C [Compound 41]	97
CN(Cc1ccc(F)c(F)c1)Cc1cccc2ccccc12 [Compound 45]	87
CN(Cc1ccc(C#N)cc1)Cc1cccc2ccccc12 [Compound 46]	96
CC(C)Oc1ccc(CN(C)Cc2cccc3ccccc23)cc1 [Compound 47]	71
CN(Cc1c(Cl)cccc1Cl)Cc1cccc2ccccc12 [Compound 48]	77
Cc1cccc(CN(C)Cc2cccc3ccccc23)c1 [Compound 50]	93
